Source: PubChem BioAssay (NCI)
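Dose response: 5 concentrations. Exposure: 48 h. Format: 96-well plates. Endpoint: linear interpolation; highest concentration if not reached. Here, GI50 denotes the concentration required for 50% inhibition of growth. The concentration for full growth arrest is given as TGI.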

What was measured:
Assay in all cases: NCI anticancer screen, dose series, 48 h
SK-OV-3 ovarian = tested on: SK-OV-3 ovarian
ACHN renal = tested on: ACHN renal
HCT-15 colon = tested on: HCT-15 colon
IGROV1 ovarian = tested on: IGROV1 ovarian
HCC-2998 colon = tested on: HCC-2998 colon
BT-549 breast = tested on: BT-549 breast
SF-295 CNS = tested on: SF-295 CNS
UACC-62 melanoma = tested on: UACC-62 melanoma
T-47D breast = tested on: T-47D breast
PC-3 prostate = tested on: PC-3 prostate
SF-268 CNS = tested on: SF-268 CNS
SNB-19 CNS = tested on: SNB-19 CNS
HOP-92 NSCLC = tested on: HOP-92 NSCLC
OVCAR-5 ovarian = tested on: OVCAR-5 ovarian
OVCAR-8 ovarian = tested on: OVCAR-8 ovarian
KM12 colon = tested on: KM12 colon
SK-MEL-2 melanoma = tested on: SK-MEL-2 melanoma
HL-60(TB) leukemia = tested on: HL-60(TB) leukemia
NCI-H226 lung = tested on: NCI-H226 lung
OVCAR-3 ovarian = tested on: OVCAR-3 ovarian
SK-MEL-28 melanoma = tested on: SK-MEL-28 melanoma
UO-31 renal = tested on: UO-31 renal
MDA-MB-231 breast = tested on: MDA-MB-231 breast
HOP-62 NSCLC = tested on: HOP-62 NSCLC
UACC-257 melanoma = tested on: UACC-257 melanoma
RXF 393 renal = tested on: RXF 393 renal
MALME-3M melanoma = tested on: MALME-3M melanoma
MCF7 breast = tested on: MCF7 breast
EKVX NSCLC = tested on: EKVX NSCLC
MOLT-4 leukemia = tested on: MOLT-4 leukemia
CCRF-CEM leukemia = tested on: CCRF-CEM leukemia
HCT-116 colon = tested on: HCT-116 colon
U251 CNS = tested on: U251 CNS
MDA-MB-435 = tested on: MDA-MB-435
COLO 205 colon = tested on: COLO 205 colon
786-0 renal = tested on: 786-0 renal
SK-MEL-5 melanoma = tested on: SK-MEL-5 melanoma
K-562 leukemia = tested on: K-562 leukemia
HS 578T breast = tested on: HS 578T breast
SW-620 colon = tested on: SW-620 colon
LOX IMVI melanoma = tested on: LOX IMVI melanoma
A549 NSCLC = tested on: A549 NSCLC
DU-145 prostate = tested on: DU-145 prostate
SF-539 CNS = tested on: SF-539 CNS
NCI/ADR-RES ovarian = tested on: NCI/ADR-RES ovarian
TK-10 renal = tested on: TK-10 renal
NCI-H522 lung = tested on: NCI-H522 lung
M14 melanoma = tested on: M14 melanoma
MDA-MB-468 breast = tested on: MDA-MB-468 breast
OVCAR-4 ovarian = tested on: OVCAR-4 ovarian
CAKI-1 renal = tested on: CAKI-1 renal
SNB-75 CNS = tested on: SNB-75 CNS
HT29 colon = tested on: HT29 colon
SN12C renal = tested on: SN12C renal
NCI-H23 lung = tested on: NCI-H23 lung
A498 renal = tested on: A498 renal

O=C(NN1C(=O)/C(=C/C=C/c2ccc([N+](=O)[O-])o2)SC1=S)c1ccncc1
GI50 (SK-OV-3 ovarian): 3.03 µM | TGI (SK-OV-3 ovarian): 9.27 µM | GI50 (ACHN renal): 1.46 µM | TGI (ACHN renal): 2.77 µM | GI50 (HCT-15 colon): 0.184 µM | TGI (HCT-15 colon): 0.404 µM | GI50 (IGROV1 ovarian): 1.39 µM | TGI (IGROV1 ovarian): 2.7 µM | GI50 (HCC-2998 colon): 1.77 µM | TGI (HCC-2998 colon): 3.19 µM | GI50 (BT-549 breast): 0.495 µM | TGI (BT-549 breast): 1.66 µM | GI50 (SF-295 CNS): 1.76 µM | TGI (SF-295 CNS): 3.27 µM | GI50 (UACC-62 melanoma): 0.377 µM | TGI (UACC-62 melanoma): 1.45 µM | GI50 (T-47D breast): 1.73 µM | TGI (T-47D breast): 4.16 µM | GI50 (PC-3 prostate): 1.93 µM | TGI (PC-3 prostate): 4.96 µM | GI50 (SF-268 CNS): 1.69 µM | TGI (SF-268 CNS): 3.95 µM | GI50 (SNB-19 CNS): 1.8 µM | TGI (SNB-19 CNS): 3.93 µM | GI50 (HOP-92 NSCLC): 1.65 µM | TGI (HOP-92 NSCLC): 3.35 µM | GI50 (OVCAR-5 ovarian): 1.9 µM | TGI (OVCAR-5 ovarian): 3.38 µM | GI50 (OVCAR-8 ovarian): 0.354 µM | TGI (OVCAR-8 ovarian): 3.22 µM | GI50 (KM12 colon): 1.63 µM | TGI (KM12 colon): 4.01 µM | GI50 (SK-MEL-2 melanoma): 0.584 µM | TGI (SK-MEL-2 melanoma): 2.02 µM | GI50 (HL-60(TB) leukemia): 1.92 µM | TGI (HL-60(TB) leukemia): 4.83 µM | GI50 (NCI-H226 lung): 1.19 µM | TGI (NCI-H226 lung): 4.02 µM | GI50 (OVCAR-3 ovarian): 1.28 µM | TGI (OVCAR-3 ovarian): 3.01 µM | GI50 (SK-MEL-28 melanoma): 1.54 µM | TGI (SK-MEL-28 melanoma): 2.98 µM | GI50 (UO-31 renal): 1.16 µM | TGI (UO-31 renal): 2.39 µM | GI50 (MDA-MB-231 breast): 0.655 µM | TGI (MDA-MB-231 breast): 1.94 µM | GI50 (HOP-62 NSCLC): 1.58 µM | TGI (HOP-62 NSCLC): 3.14 µM | GI50 (UACC-257 melanoma): 1.53 µM | TGI (UACC-257 melanoma): 3.31 µM | GI50 (RXF 393 renal): 1.26 µM | TGI (RXF 393 renal): 2.65 µM | GI50 (MALME-3M melanoma): 0.24 µM | TGI (MALME-3M melanoma): 0.541 µM | GI50 (MCF7 breast): 0.451 µM | TGI (MCF7 breast): 2.07 µM | GI50 (EKVX NSCLC): 1.48 µM | TGI (EKVX NSCLC): 2.89 µM | GI50 (MOLT-4 leukemia): 0.403 µM | TGI (MOLT-4 leukemia): 2.21 µM | GI50 (CCRF-CEM leukemia): 0.346 µM | TGI (CCRF-CEM leukemia): 3.57 µM | GI50 (HCT-116 colon): 0.239 µM | TGI (HCT-116 colon): 0.565 µM | GI50 (U251 CNS): 1.03 µM | TGI (U251 CNS): 2.66 µM | GI50 (MDA-MB-435): 0.634 µM | TGI (MDA-MB-435): 2.22 µM | GI50 (COLO 205 colon): 1.52 µM | TGI (COLO 205 colon): 2.96 µM | GI50 (786-0 renal): 0.96 µM | TGI (786-0 renal): 2.39 µM | GI50 (SK-MEL-5 melanoma): 1.05 µM | TGI (SK-MEL-5 melanoma): 2.24 µM | GI50 (K-562 leukemia): 0.294 µM | TGI (K-562 leukemia): > 100 µM | GI50 (HS 578T breast): 1.74 µM | TGI (HS 578T breast): 8.2 µM | GI50 (SW-620 colon): 0.274 µM | TGI (SW-620 colon): 0.739 µM | GI50 (LOX IMVI melanoma): 0.203 µM | TGI (LOX IMVI melanoma): 0.44 µM | GI50 (A549 NSCLC): 2.86 µM | TGI (A549 NSCLC): 10.8 µM | GI50 (DU-145 prostate): 1.96 µM | TGI (DU-145 prostate): 4.8 µM | GI50 (SF-539 CNS): 0.402 µM | TGI (SF-539 CNS): 1.45 µM | GI50 (NCI/ADR-RES ovarian): 1.42 µM | TGI (NCI/ADR-RES ovarian): 7.08 µM | GI50 (TK-10 renal): 1.63 µM | TGI (TK-10 renal): 3.03 µM | GI50 (NCI-H522 lung): 0.189 µM | TGI (NCI-H522 lung): 0.414 µM | GI50 (M14 melanoma): 0.547 µM | TGI (M14 melanoma): 1.93 µM | GI50 (MDA-MB-468 breast): 1.2 µM | TGI (MDA-MB-468 breast): 2.64 µM | GI50 (OVCAR-4 ovarian): 1.62 µM | TGI (OVCAR-4 ovarian): 3.27 µM | GI50 (CAKI-1 renal): 1.47 µM | TGI (CAKI-1 renal): 2.82 µM | GI50 (SNB-75 CNS): 1.33 µM | TGI (SNB-75 CNS): 7 µM | GI50 (HT29 colon): 1.65 µM | TGI (HT29 colon): 3.54 µM | GI50 (SN12C renal): 0.369 µM | TGI (SN12C renal): 1.62 µM | GI50 (NCI-H23 lung): 1.23 µM | TGI (NCI-H23 lung): 2.67 µM | GI50 (A498 renal): 17.1 µM | TGI (A498 renal): 31 µM
